Data reported in patent US8846981B2, “1,1-di[(alkylphenoxy)ethoxy]cyclohexanes” (Southern Lithoplate, Inc., priority 2012, dated 2014).

How the values were obtained:
[1] = Solubility of the ketals in water / deionized water; type: physicochemical; settings: for Solubility in water: product or starting alcohol as described in the example
Source text: A typical aqueous alkaline developer for a positive-working, lithographic printing plate contains roughly 5% by weight of NaOH or KOH. A 1.0 M NaOH solution is equivalent to 4% by weight of NaOH.

[2] = related art; cited from earlier work
[3] = Acid decomposition of the ketal back to starting alcohol and cyclohexanone; type: physicochemical; settings: addition of an acid, such as p-toluenesulfonic acid
Procedure: A stirred mixture of 72 g (0.5 mol) of 1,1-dimethoxycyclohexane, 250 g (1.0 mol) of 2-[4-(1,1,3,3-tetramethylbutyl)phenoxy]ethanol, 0.080 g of p-toluenesulfonic acid, and 300 ml of toluene was reacted in a flask with a thermometer and fractional distillation column at 120° C. for 8 hours with continuous stirring. The low boiling methanol that was produced during the reaction was removed. The reaction mixture was cooled to room temperature and washed with a small amount of an aqueous 1.0 M sodium hydroxide solution until the mixture was neutralized. The reaction mixture was then washed with a saturated sodium chloride solution to remove any remaining water in the toluene. Next the reaction mixture was dried over anhydrous potassium carbonate to remove any minor amounts of water and to make sure all of the p-toluenesulfonic acid was removed. The resulting mixture was filtered. The filtrate was evaporated under reduced pressure at 60° C. until all of the toluene was removed. […] The starting surfactant is water-insoluble. This ketal with a theoretical molecular weight of 580 has the structural formula shown below.

[4] = Solubility in a 1.0 M NaOH water solution; type: physicochemical; settings: 1.0 M NaOH water solution (equivalent to 4% by weight NaOH)
Source text: The physical appearance of the ketals from Examples 1-4 and from Comparative Examples A-B are given in the following table, along with their solubility in deionized water and in a 1.0 M NaOH water solution. A typical aqueous alkaline developer for a positive-working, lithographic printing plate contains roughly 5% by weight of NaOH or KOH. A 1.0 M NaOH solution is equivalent to 4% by weight of NaOH.

[5] = related art; cited from earlier work; remark: listed apart in the source

SMILES	Solubility in water [1]	Solubility in water (background statement, words) [2]	Decomposition by acid [3]	Solubility in 1.0M NaOH [4]	Solubility in DI Water ([1]; deionized water)	Decomposition by strong acids (background statement) [5]
CC(C)(C)CC(C)(C)c1ccc(OCCO)cc1 [2-[4-(1,1,3,3-tetramethylbutyl)phenoxy]ethanol]	water-insoluble	–	–	–	–	–
c1ccc(OCCOC2(OCCOc3ccccc3)CCCCC2)cc1 [A, 1,1-di(2-phenoxyethoxy)cyclohexane]	water-insoluble	water insoluble	can be converted back to the starting alcohol and cyclohexanone	insoluble	insoluble	decompose this ketal into cyclohexanone and 2-phenoxyethanol
CC(C)(C)c1ccc(OCCO)cc1 [2-[4-(1,1-dimethylethyl)phenoxy]ethanol]	water-insoluble	–	–	–	–	–
OCCOc1ccccc1 [2-phenoxyethanol]	low water solubility	–	–	–	–	–
